From patent publication US20260297042A1, “BIARYLAMIDE DERIVATIVES AND THEIR USE AS PKMYT1 INHIBITORS” (CANCER RESEARCH TECHNOLOGY LIMITED, priority 2023, published 2026)

Experiments:
Human PKMYT1 = biological target: T1, Human PKMYT1 (Homo sapiens, UniProt Q99640); experiment: PKMYT1 biochemical ADP-Glo enzymatic assay; settings: PKMYT1 kinase domain 15 nM; ADP-Glo; banded values
T1 construct: Human PKMYT1 75-362 was cloned as a TEV cleavable 6xHis fusion; 6xHis (TEV cleavable) (cleaved yes); made in house; host or cells: bacterial cells
T1 sequence (Q99640 75-362): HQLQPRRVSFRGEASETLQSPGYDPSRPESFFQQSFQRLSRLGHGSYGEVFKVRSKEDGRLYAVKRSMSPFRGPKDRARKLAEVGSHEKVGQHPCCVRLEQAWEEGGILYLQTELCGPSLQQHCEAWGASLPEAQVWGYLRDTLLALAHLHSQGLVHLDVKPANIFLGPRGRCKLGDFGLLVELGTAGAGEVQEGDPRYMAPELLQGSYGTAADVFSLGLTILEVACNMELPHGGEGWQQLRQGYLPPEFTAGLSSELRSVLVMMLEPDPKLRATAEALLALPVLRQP
Method in brief: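 Compounds were titrated over 10 points (3-fold steps), then 15 nM purified PKMYT1 kinase domain (aa 75-362) and 500 µM ATP were added in pH 7.5 HEPES buffer. After 60 min at 26 °C, remaining ATP was depleted and ADP converted to luminescence for IC50 fitting.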

WEE1 = biological target: T2, WEE1 (Homo sapiens, UniProt P30291); experiment: Selectivity versus WEE1 assay (ADP-Glo enzymatic assay); assay type: biochemical; settings: for IC50: WEE1 15 nM, ADP-Glo, banded values; for PKMYT1 vs. WEE1 selectivity: fold difference in selectivity for PKMYT1 over WEE1, banded
T2 construct: purchased Thermo Fisher PR7373A
T2 sequence (P30291 whole entry): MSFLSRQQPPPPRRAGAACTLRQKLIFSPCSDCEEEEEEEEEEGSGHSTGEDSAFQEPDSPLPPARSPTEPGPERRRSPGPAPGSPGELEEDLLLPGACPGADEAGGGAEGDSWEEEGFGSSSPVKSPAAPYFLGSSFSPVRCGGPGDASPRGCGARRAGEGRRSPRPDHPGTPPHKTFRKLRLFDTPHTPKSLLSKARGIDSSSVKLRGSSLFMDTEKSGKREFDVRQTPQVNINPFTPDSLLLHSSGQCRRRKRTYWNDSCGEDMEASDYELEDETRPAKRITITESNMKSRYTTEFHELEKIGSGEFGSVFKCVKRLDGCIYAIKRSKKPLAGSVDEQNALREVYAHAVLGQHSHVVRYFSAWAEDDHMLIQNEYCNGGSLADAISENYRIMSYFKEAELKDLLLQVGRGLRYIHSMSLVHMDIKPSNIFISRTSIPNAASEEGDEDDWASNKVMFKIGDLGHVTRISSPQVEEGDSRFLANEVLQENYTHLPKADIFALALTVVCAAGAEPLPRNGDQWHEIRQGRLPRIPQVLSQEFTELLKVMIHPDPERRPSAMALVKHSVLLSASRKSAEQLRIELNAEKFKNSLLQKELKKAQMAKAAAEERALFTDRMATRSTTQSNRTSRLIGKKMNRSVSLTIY
Method in brief: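 Compounds were pre-dispensed, enzyme (15 nM final) was added in pH 7.5 HEPES buffer, and ATP ([…]) then started a 60 min incubation at 26° C. Afterwards ADP-Glo reagents were added in turn and luminescence was measured to derive IC50 values.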

OVCAR 3 cells = experiment: Cancer cell line proliferation assay, ATP-based cell viability (Cell Titre Glow), OVCAR 3 (CCNE1-amplified); settings: KYSE30 (normal CCNE1) GI50 vs. OVCAR 3 (CCNE1-amplified) GI50
Method in brief: (§1)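 Proliferation of KYSE-30 (normal CCNE1) and CCNE1-amplified OVCAR 3 ovarian cancer cells treated with PKMYT1 inhibitors, read by Cell Titre Glow luminescence. GI50 is the concentration giving 50% growth inhibition.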

KYSE-30 cells = experiment: Cancer cell line proliferation assay, ATP-based cell viability (Cell Titre Glow), KYSE-30 (normal CCNE1); settings: Homo sapiens, KYSE-30 cells (normal CCNE1), concentration that achieves 50% cell growth proliferation inhibition, read-out: KYSE30 Gl50
Method in brief: as §1

[1] = biological target: T3, Cellular PKMYT1 Biomarker CDK1 pT14 (Homo sapiens, UniProt Q99640); experiment: Inhibition of cellular PKMYT1 biomarker CDK1 pT14 in OVCAR 3 cells (immunoblot); assay type: cell-based; settings: 20 hours incubation
T3 construct: read-out CDK1 phospho-T14 immunoblot
T3 sequence (Q99640 1-499): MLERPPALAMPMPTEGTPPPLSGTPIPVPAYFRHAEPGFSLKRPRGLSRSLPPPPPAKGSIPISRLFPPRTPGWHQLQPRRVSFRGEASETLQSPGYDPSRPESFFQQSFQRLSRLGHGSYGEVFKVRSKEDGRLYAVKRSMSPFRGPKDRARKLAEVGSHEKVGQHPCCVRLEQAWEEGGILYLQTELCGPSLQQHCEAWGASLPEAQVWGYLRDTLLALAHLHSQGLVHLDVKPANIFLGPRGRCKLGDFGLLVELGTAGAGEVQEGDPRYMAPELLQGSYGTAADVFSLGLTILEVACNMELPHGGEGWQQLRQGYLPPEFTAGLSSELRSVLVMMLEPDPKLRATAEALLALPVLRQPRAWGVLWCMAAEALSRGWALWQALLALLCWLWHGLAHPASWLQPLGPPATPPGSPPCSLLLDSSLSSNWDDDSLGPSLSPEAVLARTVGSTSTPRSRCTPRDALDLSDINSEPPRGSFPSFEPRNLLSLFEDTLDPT
Method in brief: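 Confluent OVCAR 3 cells treated with a compound concentration range for 20 h at 37 °C. Lysates analysed by automated capillary immunoblot for CDK1 phospho-T14, with vinculin, fluorescence detection; IC50 by regression.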

Structure (SMILES) | IC50 (Human PKMYT1) | IC50 (WEE1) | PKMYT1 vs. WEE1 selectivity (WEE1) | IC50 [1] | Selectivity ratio KYSE30 Gl50 vs. OVCAR3 Gl50 (OVCAR 3 cells) | GI50 (KYSE-30 cells)
Cc1ccc(O)c(C)c1NC(=O)c1cnc(Nc2cc(N3CCOCC3)ncn2)s1 [BAA-571, N-(3-hydroxy-2,6-dimethylphenyl)-2-((6-morpholinopyrimidin-4-yl)amino)thiazole-5-carboxamide] | < 50 nM | 50 to 1000 nM | W (10-<100 fold) | < 100 nM | Y (>20 fold) | 500 to 5000 nM
Cc1nc(Nc2ncc(C(=O)Nc3c(C)ccc(O)c3C)s2)cc(N2CCOCC2)n1 [BAA-572, N-(3-hydroxy-2,6-dimethylphenyl)-2-((2-methyl-6-morpholinopyrimidin-4-yl)amino)thiazole-5-carboxamide] | < 50 nM | 50 to 1000 nM | W (10-<100 fold) | < 100 nM | Y (>20 fold) | 500 to 5000 nM
Cc1cn(C(CO)C(=O)N2CCCC2C(F)(F)F)nc1Nc1ncc(C(=O)Nc2c(C)ccc(O)c2C)s1 (stereo not drawn) [BAA-578, 2-((1-(3-hydroxy-1-oxo-1-(2-(trifluoromethyl)pyrrolidin-1-yl)propan-2-yl)-4-methyl-1H-pyrazol-3-yl)amino)-N-(3-hydroxy-2,6-dimethylphenyl)thiazole-5-carboxamide] | < 50 nM | 1000 to 11000 nM | X (100-<1000 fold) | < 100 nM | Y (>20 fold) | > 5000 nM
Cc1ccc(O)c(C)c1NC(=O)c1cnc(Nc2cc(N3CCN(C)CC3)ncn2)s1 [BAA-581, N-(3-hydroxy-2,6-dimethylphenyl)-2-((6-(4-methylpiperazin-1-yl)pyrimidin-4-yl)amino)thiazole-5-carboxamide] | < 50 nM | 50 to 1000 nM | W (10-<100 fold) | < 100 nM | Y (>20 fold) | > 5000 nM
Cc1ccc(O)c(C)c1NC(=O)c1cnc(Nc2nn(CCF)cc2Cl)s1 [BAA-582, 2-((4-chloro-1-(2-fluoroethyl)-1H-pyrazol-3-yl)amino)-N-(3-hydroxy-2,6-dimethylphenyl)thiazole-5-carboxamide] | < 50 nM | 1000 to 11000 nM | X (100-<1000 fold) | < 100 nM | Y (>20 fold) | 500 to 5000 nM
Cc1cn(C(CO)C(=O)N2CCCC2)nc1Nc1ncc(C(=O)Nc2c(C)ccc(O)c2C)s1 (stereo not drawn) [BAA-583, 2-((1-(3-Hydroxy-1-oxo-1-(pyrrolidin-1-yl)propan-2-yl)-4-methyl-1H-pyrazol-3-yl)amino)-N-(3-hydroxy-2,6-dimethylphenyl)thiazole-5-carboxamide] | < 50 nM | 1000 to 11000 nM | X (100-<1000 fold) | < 100 nM | Y (>20 fold) | > 5000 nM
Cc1cn(CC#N)nc1Nc1ncc(C(=O)Nc2c(C)ccc(O)c2Br)s1 [BAA-584, N-(2-Bromo-3-hydroxy-6-methylphenyl)-2-((1-(cyanomethyl)-4-methyl-1H-pyrazol-3-yl)amino)thiazole-5-carboxamide] | < 50 nM | 50 to 1000 nM | W (10-<100 fold) | 100 to 1000 nM | Y (>20 fold) | > 5000 nM
Cc1ccc(O)c(C)c1NC(=O)c1cnc(Nc2nn(CCF)cc2Br)s1 [BAA-585, 2-((4-bromo-1-(2-fluoroethyl)-1H-pyrazol-3-yl)amino)-N-(3-hydroxy-2,6-dimethylphenyl)thiazole-5-carboxamide] | < 50 nM | 1000 to 11000 nM | X (100-<1000 fold) | < 100 nM | Y (>20 fold) | 500 to 5000 nM
Cc1ccc(O)c(C)c1NC(=O)c1cnc(Nc2nn(CC#N)cc2Br)s1 [BAA-586, 2-((4-bromo-1-(cyanomethyl)-1H-pyrazol-3-yl)amino)-N-(3-hydroxy-2,6-dimethylphenyl)thiazole-5-carboxamide] | < 50 nM | 50 to 1000 nM | W (10-<100 fold) | < 100 nM | X (3-20 fold) | 500 to 5000 nM

Continued, in another order:

IC50 (Human PKMYT1) | IC50 (WEE1) | PKMYT1 vs. WEE1 selectivity (WEE1) | IC50 [1] | Structure (SMILES) | Selectivity ratio KYSE30 Gl50 vs. OVCAR3 Gl50 (OVCAR 3 cells) | GI50 (KYSE-30 cells)
< 50 nM | 1000 to 11000 nM | X (100-<1000 fold) | < 100 nM | CCN(CCOC)C(=O)Cn1cc(C)c(Nc2ncc(C(=O)Nc3c(C)ccc(O)c3C)s2)n1 [BAA-550, 2-((1-(2-(ethyl(2-methoxyethyl)amino)-2-oxoethyl)-4-methyl-1H-pyrazol-3-yl)amino)-N-(3-hydroxy-2,6-dimethylphenyl)thiazole-5-carboxamide] | Y (>20 fold) | > 5000 nM
< 50 nM | 1000 to 11000 nM | X (100-<1000 fold) | < 100 nM | CCN(C(=O)Cn1cc(C)c(Nc2ncc(C(=O)Nc3c(C)ccc(O)c3C)s2)n1)C1CC1 [BAA-551, 2-((1-(2-(cyclopropyl(ethyl)amino)-2-oxoethyl)-4-methyl-1H-pyrazol-3-yl)amino)-N-(3-hydroxy-2,6-dimethylphenyl)thiazole-5-carboxamide] | Y (>20 fold) | 500 to 5000 nM
< 50 nM | 1000 to 11000 nM | X (100-<1000 fold) | < 100 nM | Cc1cn(CC(=O)N(C)C2CC2)nc1Nc1ncc(C(=O)Nc2c(C)ccc(O)c2C)s1 [BAA-554, 2-((1-(2-(cyclopropyl(methyl)amino)-2-oxoethyl)-4-methyl-1H-pyrazol-3-yl)amino)-N-(3-hydroxy-2,6-dimethylphenyl)thiazole-5-carboxamide] | Y (>20 fold) | > 5000 nM
< 50 nM | 1000 to 11000 nM | X (100-<1000 fold) | < 100 nM | CCN(CC)C(=O)Cn1cc(Cl)c(Nc2ncc(C(=O)Nc3c(C)ccc(O)c3C)s2)n1 [BAA-560, 2-((4-chloro-1-(2-(diethylamino)-2-oxoethyl)-1H-pyrazol-3-yl)amino)-N-(3-hydroxy-2,6-dimethylphenyl)thiazole-5-carboxamide] | Y (>20 fold) | 500 to 5000 nM
< 50 nM | 1000 to 11000 nM | X (100-<1000 fold) | < 100 nM | Cc1cn(CCF)nc1Nc1ncc(C(=O)Nc2c(C)ccc(O)c2Br)s1 [BAA-565, N-(2-bromo-3-hydroxy-6-methylphenyl)-2-((1-(2-fluoroethyl)-4-methyl-1H-pyrazol-3-yl)amino) thiazole-5-carboxamide] | Y (>20 fold) | > 5000 nM
< 50 nM | 1000 to 11000 nM | X (100-<1000 fold) | < 100 nM | Cc1ccc(O)c(C)c1NC(=O)c1cnc(Nc2n[nH]cc2Cl)s1 [BAA-566, 2-((4-chloro-1H-pyrazol-3-yl)amino)-N-(3-hydroxy-2,6-dimethylphenyl)thiazole-5-carboxamide] | Y (>20 fold) | > 5000 nM
< 50 nM | 1000 to 11000 nM | X (100-<1000 fold) | < 100 nM | Cc1ccc(O)c(C)c1NC(=O)c1cnc(Nc2nn(CC(F)F)cc2Cl)s1 [BAA-569, 2-((4-chloro-1-(2,2-difluoroethyl)-1H-pyrazol-3-yl)amino)-N-(3-hydroxy-2,6-dimethylphenyl)thiazole-5-carboxamide] | Y (>20 fold) | 500 to 5000 nM
